The values that follow come from patent US12678419B2, “Compounds” (Sitryx Therapeutics Limited, priority 2020, dated 2026).

Series [1] in a line: Hepatocyte stability assay, mouse. In kind it is in vitro ADME. To be noted: mouse, cryopreserved hepatocytes, 10 μM compound, read-out: T½. The gist of the method:
(§1)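 Cryopreserved hepatocytes (viability >70%) at 0.5×10^6 cells/mL in Leibovitz buffer, compound 10 μM (0.1% DMSO) at 37° C. Samples at 0, 5, 10, 20, 40, 60 min quenched in acetonitrile and analysed by LC-MS/MS, with buffer-only incubations as control. Half-life and Clint (μL min^−1 10^−6 cells) from ln % remaining versus time.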

The test system of a further series is mouse hepatocytes. The series is described as follows: Hepatocyte stability assay, mouse. In kind it is in vitro ADME. Conditions: 10 μM compound. The gist of the method:
as §1

Series [2] deals with NRF2 (nuclear factor erythroid 2-related factor 2). The series can be described thus: NRF2 +/-GSH activation assay (DiscoverX PathHunter NRF2 translocation kit, U2OS cells). In kind it is cell-based. Conditions: for Emax (%) +GSH / Emax (%) −GSH: normalised to dimethyl fumarate high control.
Series [3] has as its system IL-6 cytokine output from THP-1s. The series is described as follows: THP-1 AlphaLISA IL-6 cytokine assay. In kind it is cell-based. To be noted: Homo sapiens, LPS then nigericin, Table 1. The gist of the method:
(§2)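 PMA-differentiated THP-1 cells (72 h) pre-incubated with compound for 30 min, LPS-stimulated for 24 h, then nigericin for 1 h, all at 37° C. IL-1β and IL-6 in supernatants measured by AlphaLISA. IC50 from concentration-response of % inhibition normalized to ±LPS controls.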

The test system of series [4] is IL-1β cytokine output from THP-1s. The series can be described thus: THP-1 AlphaLISA IL-1β cytokine assay. In kind it is cell-based. To be noted: Homo sapiens, LPS then nigericin, Table 1. The gist of the method: as §2
Series [5] in a line: Hepatocyte stability assay, human. To be noted: human, cryopreserved hepatocytes, 10 μM compound, read-out: T½. In kind it is in vitro ADME. In a few lines:
as §1

The test system of a further series is human hepatocytes. The series is described as follows: Hepatocyte stability assay, human. In kind it is in vitro ADME. Conditions: 10 μM compound. In a few lines:
as §1

Where [6] appears, read: THP-1, differentiated THP-1 cells.

Molecules are shown by their SMILES. Values joined by “and” are separate entries in the source; they are usually repeats but may differ in a detail not shown here. Equal entries are not always repeated. Some results are limits rather than exact numbers.

Turning to `C=C(CC(=O)OC1CCc2cc(C(F)(F)F)ccc21)C(=O)OCC(=O)O` (single isomer, unassigned; enantiomer 1) [Example 27, 2-((2-methylene-4-oxo-4-((5-(trifluoromethyl)-2,3-dihydro-1H-inden-1-yl)oxy)butanoyl)oxy)acetic acid (Enantiomer 1)], the half-life at 10 μM in series [1] is 16 min; in series [5], 169 min. In addition, the “Clint (μL min^−1 10^−6 cells)” value in the series on mouse hepatocytes was determined as 97 μL min^−1 10^−6 cells; in the series on human hepatocytes, 9 μL min^−1 10^−6 cells. Also, the EC50 in series [2] (+GSH) was 35.1 µM and 37.5 µM; in series [2] (−GSH) it was 12.2 µM and 22.2 µM. For the same molecule, the “Emax (%) +GSH” value in series [2] (+GSH) was 139% and 136%. Moreover, in series [2] (−GSH), the “Emax (%) −GSH” value is 157% and 201%. Moreover, the 50% inhibitory concentration (IC50) in series [3] (setting [6]) was determined as 8.6 µM; in series [4] (setting [6]) it was 11.9 µM.
For the molecule `C=C(CC(=O)OC1Cc2cc(Cl)c(Cl)cc2C1)C(=O)OCC(=O)O` [Example 4, 2-((4-((5,6-dichloro-2,3-dihydro-1H-inden-2-yl)oxy)-2-methylene-4-oxobutanoyl)oxy)acetic acid], the half-life at 10 μM in series [1] was found to be 16 min; in series [5], 119 min. For the same molecule, the “Clint (μL min^−1 10^−6 cells)” value in the series with mouse hepatocytes is 83 μL min^−1 10^−6 cells; with human hepatocytes, 13 μL min^−1 10^−6 cells. Moreover, the EC50 turned out to be 16.5 µM in series [2] (+GSH) and 7.5 µM in series [2] (−GSH). In series [2] (+GSH), the “Emax (%) +GSH” value came out at 182%. For the same molecule, in series [2] (−GSH), the “Emax (%) −GSH” value is given as 196%. Moreover, the IC50 in series [3] (setting [6]) was 4.6 µM; in series [4] (setting [6]), 12 µM.
Consider `C=C(CC(=O)OC1CCCc2cc(C(F)(F)F)ccc21)C(=O)OCC(=O)O` (single isomer, unassigned; enantiomer 1) [Example 31, 2-((2-methylene-4-oxo-4-((6-(trifluoromethyl)-1,2,3,4-tetrahydronaphthalen-1-yl)oxy)butanoyl)oxy)acetic acid (Enantiomer 1)], for which the half-life at 10 μM was determined as 6 min in series [1] and 61 min in series [5]. Moreover, the “Clint (μL min^−1 10^−6 cells)” value in the series on mouse hepatocytes is listed as 272 μL min^−1 10^−6 cells; with human hepatocytes, 29 μL min^−1 10^−6 cells. Moreover, the EC50 in series [2] (+GSH) turned out to be 22.9 µM; in series [2] (−GSH), 11.3 µM. Moreover, the “Emax (%) +GSH” value in series [2] (+GSH) is 137%. The “Emax (%) −GSH” value in series [2] (−GSH) is given as 141%. Besides, the IC50 in series [3] (setting [6]) and in series [4] (setting [6]) was 9.6 µM in each case.
Take `C=C(CC(=O)OC1(C)Cc2ccc(Cl)cc2C1)C(=O)OCC(=O)O` (centres unmarked) [Example 7, 2-((4-((5-chloro-2-methyl-2,3-dihydro-1H-inden-2-yl)oxy)-2-methylene-4-oxobutanoyl)oxy)acetic acid]: the half-life at 10 μM in series [1] came to 10 min; in series [5], 86 min. Besides, the “Clint (μL min^−1 10^−6 cells)” value came to 142 μL min^−1 10^−6 cells in the series with mouse hepatocytes and 17 μL min^−1 10^−6 cells in the series with human hepatocytes. The EC50 in series [2] (+GSH) came out at 22.3 µM; in series [2] (−GSH), 14.5 µM. The “Emax (%) +GSH” value in series [2] (+GSH) is given as 135%. The “Emax (%) −GSH” value in series [2] (−GSH) is 155%. Also, the figures for the half-inhibitory concentration (IC50) in series [3] (differentiated THP-1 cells) and in series [4] (differentiated THP-1 cells) were 8.2 µM and above 31.6 µM, respectively.
For `C=C(CC(=O)OC1Cc2ccc(Cl)cc2C1)C(=O)OCC(=O)O` (centres unmarked) [Example 1, 2-((4-((5-chloro-2,3-dihydro-1H-inden-2-yl)oxy)-2-methylene-4-oxobutanoyl)oxy)acetic acid], the half-life at 10 μM in series [1] was found to be 41 min; in series [5], 449 min. The entries for the “Clint (μL min^−1 10^−6 cells)” value in the series on mouse hepatocytes and in the series on human hepatocytes were 46 μL min^−1 10^−6 cells and 3 μL min^−1 10^−6 cells, respectively. Moreover, the EC50 in series [2] (+GSH) was found to be 34.6 µM; in series [2] (−GSH), 25.6 µM. For the same molecule, the “Emax (%) +GSH” value in series [2] (+GSH) amounted to 125%. Also, the “Emax (%) −GSH” value in series [2] (−GSH) is reported as 139%. The IC50 in series [3] (setting [6]) worked out at 10.2 µM; in series [4] (setting [6]), 29.2 µM.
